According to patent publication US9896445B2, “Heterocyclic inhibitors of ERK1 and ERK2 and their use in the treatment of cancer” (Asana Biosciences, LLC, priority 2015, dated 2018):

What was measured:
ERK1 = molecular target: T1, ERK1 (Homo sapiens, UniProt P27361); assay: ERK1 HTRF (biochemical) assay
T1 construct: purchased Jubilant Biosys
Experimental: (§1) ERK1 and ERK2 HTRF (Biochemical) Assays
These assays employed a homogeneous time resolved fluorescence (HTRF) technique. […] The plate was incubated at room temperature for 60 min with shaking. […] The IC50 values (half maximal inhibitory concentration values) were subsequently determined using a sigmoidal dose-response curve (variable slope) in GraphPad Prism® 5 software.

ERK2 = molecular target: T2, ERK2 (Homo sapiens, UniProt P28482); assay: ERK2 HTRF (biochemical) assay
T2 construct: purchased Jubilant Biosys
T2 sequence (P28482 whole entry): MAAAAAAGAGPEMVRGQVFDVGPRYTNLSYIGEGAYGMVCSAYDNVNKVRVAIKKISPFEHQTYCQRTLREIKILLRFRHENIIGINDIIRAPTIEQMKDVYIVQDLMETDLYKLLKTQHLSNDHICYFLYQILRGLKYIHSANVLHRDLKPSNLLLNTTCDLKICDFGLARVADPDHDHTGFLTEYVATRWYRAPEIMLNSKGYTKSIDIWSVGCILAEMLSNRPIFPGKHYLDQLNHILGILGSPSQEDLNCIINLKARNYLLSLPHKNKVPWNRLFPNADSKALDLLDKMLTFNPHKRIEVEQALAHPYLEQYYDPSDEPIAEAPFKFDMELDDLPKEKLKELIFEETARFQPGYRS
Experimental: as §1
These assays employed a homogeneous time resolved fluorescence (HTRF) technique. The compounds were serially diluted by half-log with concentrations ranging from 0.0005 to 10 uM in the assay buffer (50 mM Tris pH=7.5, 1 mM EGTA, 2 mM DTT, 10 mM MgCl2, 0.1% Tween-20) and 20 uL of substrate-ATP mix [1 uM Biotin-LC-Myelin Basic Protein (MBP) derivatized Peptide (Anaspec)-24 uM ATP (Sigma)] was added to each well of the assay plate. Then 10 uL of enzyme mix [25 nM ERK1 or ERK2 (Jubilant Biosys) in assay buffer] was added to each well. The plate was incubated at room temperature for 60 min with shaking. The HTRF mix [625 nM LANCE® Ultra Europium-anti-phospho-MBP (Perkin Elmer) and 2 nM Phycolink® Streptavidin-Allophycocyanin (SA-APC) (Prozyme) in HTRF buffer (50 mM Tris-HCl pH=7.5, 100 mM NaCl, 0.1% BSA, 0.05% Tween20, 0.5 mM EDTA)] was prepared and 75 uL of this mix was added to the HTRF plate. After incubation for 60 min at room temperature, 10 uL of the reaction mixture was transferred to the HTRF assay plate and incubated for 45 min at room temperature with shaking. Plate was read using Pherastar in HTRF mode (excitation 337 nm, emission 665 & 620 nm). The IC50 values (half maximal inhibitory concentration values) were subsequently determined using a sigmoidal dose-response curve (variable slope) in GraphPad Prism® 5 software.

T1 sequence (P27361 whole entry): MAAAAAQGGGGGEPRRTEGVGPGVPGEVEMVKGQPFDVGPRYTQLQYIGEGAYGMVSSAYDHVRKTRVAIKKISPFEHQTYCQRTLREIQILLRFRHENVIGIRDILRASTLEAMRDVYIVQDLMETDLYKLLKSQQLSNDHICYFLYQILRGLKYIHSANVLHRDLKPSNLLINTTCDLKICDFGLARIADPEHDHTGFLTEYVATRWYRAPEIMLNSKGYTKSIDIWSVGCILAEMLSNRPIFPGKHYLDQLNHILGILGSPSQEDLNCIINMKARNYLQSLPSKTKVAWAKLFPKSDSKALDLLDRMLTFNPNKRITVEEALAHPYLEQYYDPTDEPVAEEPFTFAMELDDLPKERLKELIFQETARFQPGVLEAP

IC50 (ERK1; HTRF) | IC50 (ERK2; HTRF) | IC50 (ERK1; HTRF biochemical assay) | IC50 (ERK2; HTRF biochemical assay) | SMILES
< 0.05 µM | ≤ 0.05 µM | – | – | O=C(NC(CO)c1cccc(Cl)c1)c1ccn(-c2ccnc(Nc3ccccc3)c2)c1 (stereo not shown) [Compound 46, N-(1-(3-chloro-phenyl)-2-hydroxy-ethyl)-1-(2-(phenyl-amino)pyridin-4-yl)-1H-pyrrole-3-carboxamide]
< 0.05 µM | ≤ 0.05 µM | – | – | Cc1cc(Nc2ncc(C)c(-n3ccc(C(=O)NC(CO)c4cccc(Cl)c4)c3)n2)ccc1C1CCNCC1 (stereo not shown) [Compound 182, N-(1-(3-chloro-phenyl)-2-hydroxyethyl)-1-(5-methyl-2-((3-methyl-4-(piperidin-4-yl)phenyl)-amino)pyrimidin-4-yl)-1H-pyrrole-3-carboxamide]
– | – | < 0.05 µM | ≤ 0.05 µM | Cc1cnc(N[C@@H]2CCOC2)nc1-n1cnc(C(=O)NCc2cccc(Cl)c2CO)c1 [Example 344, (R)-N-(3-chloro-2-(hydroxymethyl)-benzyl)-1-(5-methyl-2-((tetrahydrofuran-3-yl)amino)-pyrimidin-4-yl)-1H-imidazole-4-carboxamide]
0.05 to 0.1 µM | ≤ 0.05 µM | – | – | Cc1cn(-c2ccnc(Nc3ccccc3)c2)cc1C(=O)N[C@H](CO)c1cccc(Cl)c1 [Compound 183, (S)-N-(1-(3-chlorophenyl)-2-hydroxyethyl)-4-methyl-1-(2-(phenylamino)pyridin-4-yl)-1H-pyrrole-3-carboxamide]
< 0.05 µM | ≤ 0.05 µM | – | – | Cc1cnc(Nc2ccc(F)cc2Cl)nc1-n1cnc(C(=O)NC(CO)c2cccc(Cl)c2)c1 (stereo not shown) [Compound 166, 1-(2-((2-chloro-4-fluorophenyl)amino)-5-methyl-pyrimidin-4-yl)-N-(1-(3-chlorophenyl)-2-hydroxyethyl)-1H-imidazole-4-carboxamide]
< 0.05 µM | ≤ 0.05 µM | – | – | Cc1cnc(NC2CCC(F)(F)CC2)nc1-n1cnc(C(=O)N[C@H](CN)c2cccc(Cl)c2)c1 [Example 286, (S)-N-(2-amino-1-(3-chlorophenyl)-ethyl)-1-(2-((4,4-difluorocyclo-hexyl)amino)-5-methylpyrmidin-4-yl)-1H-imidazole-4-carboxamide]
< 0.05 µM | ≤ 0.05 µM | – | – | Cc1cnc(NC2CC=CCC2)nc1-n1cnc(C(=O)N[C@H](CN)c2cccc(Cl)c2)c1 (stereo partly drawn) [Example 292, N-((S)-2-amino-1-(3-chlorophenyl)-ethyl)-1-(2-(cyclohex-3-en-1-ylamino)-5-methyl-pyrimidin-4-yl)-1H-imidazole-4-carboxamide]
< 0.05 µM | ≤ 0.05 µM | – | – | CCC(C)Nc1ncc(C)c(-n2ccc(C(=O)N[C@H](CO)c3ccc(F)c(Cl)c3)c2)n1 (stereo partly drawn) [Compound 197, 1-(2-(sec-butylamino)-5-methylpyrimidin-4-yl)-N-((S)-1-(3-chloro-4-fluoro-phenyl)-2-hydroxy-ethyl)-1H-pyrrole-3-carboxamide]
< 0.05 µM | ≤ 0.05 µM | – | – | CC[C@@H](CO)Nc1ncc(C)c(-n2ccc(C(=O)N[C@H](CO)c3ccc(F)c(Cl)c3)c2)n1 [Compound 133, N-((S)-1-(3-chloro-4-fluorophenyl)-2-hydroxyethyl)-1-(2-(((S)-1-hydroxy-butan-2-yl)amino)-5-methylpyrimidin-4-yl)-1H-pyrrole-3-carboxamide]
< 0.05 µM | ≤ 0.05 µM | – | – | Cc1cnc(Nc2ccccc2)cc1-n1cnc(C(=O)NC(CO)c2cccc(Cl)c2)c1 (stereo not shown) [Compound 180, N-(1-(3-chloro-phenyl)-2-hydroxyethyl)-1-(5-methyl-2-(phenyl-amino)pyridin-4-yl)-1H-imidazole-4-carboxamide]

More lines, now with the values behind:

SMILES | IC50 (ERK1; HTRF) | IC50 (ERK2; HTRF) | IC50 (ERK1; HTRF biochemical assay) | IC50 (ERK2; HTRF biochemical assay)
Cc1cnc(NC2CCN(C)C2)nc1-n1ccc(C(=O)N[C@H](CO)c2cccc(Cl)c2)c1 (stereo partly drawn) [Compound 208, N-((S)-1-(3-chlorophenyl)-2-hydroxyethyl)-1-(5-methyl-2-((1-methylpyrrolidin-3-yl)amino)pyrimidin-4-yl)-1H-pyrrole-3-carboxamide] | < 0.05 µM | ≤ 0.05 µM | – | –
O=C(N[C@H](CO)c1cccc(Cl)c1)c1cn(-c2ccnc(NC3CC3)c2)cn1 [Compound 116, (S)-N-(1-(3-chlorophenyl)-2-hydroxyethyl)-1-(2-(cyclopropylamino)pyridin-4-yl)-1H-imidazole-4-carboxamide] | < 0.05 µM | ≤ 0.05 µM | – | –
Cc1cnc(NC2CCS(=O)(=O)C2)nc1-n1cnc(C(=O)N[C@H](CO)c2cccc(Cl)c2)c1 (stereo partly drawn) [Compound 246, N-((S)-1-(3-chlorophenyl)-2-hydroxyethyl)-1-(2-((1,1-dioxido-tetrahydrothiophen-3-yl)amino)-5-methylpyrimidin-4-yl)-1H-imidazole-4-carboxamide] | < 0.05 µM | ≤ 0.05 µM | – | –
Cc1cnc(Nc2ccc(F)c(N3CCNCC3)c2)nc1-n1ccc(C(=O)NC(CO)c2cccc(Cl)c2)c1 (stereo not shown) [Compound 213, N-(1-(3-chlorophenyl)-2-hydroxyethyl)-1-(2-((4-fluoro-3-(piperazin-1-yl)phenyl)amino)-5-methylpyrimidin-4-yl)-1H-pyrrole-3-carboxamide] | < 0.05 µM | ≤ 0.05 µM | – | –
Cc1cnc(Nc2ccc3c(c2)OCO3)nc1-n1ccc(C(=O)NC(CO)c2cc(Cl)cc(Cl)c2)c1 (stereo not shown) [Compound 58, 1-(2-(benzo[d][1,3]dioxol-5-ylamino)-5-methylpyrimidin-4-yl)-N-(1-(3,5-dichlorophenyl)-2-hydroxyethyl)-1H-pyrrole-3-carboxamide] | < 0.05 µM | ≤ 0.05 µM | – | –
Cc1cnc(Nc2ccc3occc3c2)cc1-n1ccc(C(=O)NC(CO)c2ccccc2)c1 (stereo not shown) [Compound 79, 1-(2-(benzofuran-5-ylamino)-5-methylpyridin-4-yl)-N-(2-hydroxy-1-phenylethyl)-1H-pyrrole-3-carboxamide] | 0.1 to 0.5 µM | ≤ 0.05 µM | – | –
Cc1cnc(Nc2ccc(F)cc2)nc1-n1ccc(C(=O)NC(CO)c2cccc(Cl)c2)c1 (stereo not shown) [Compound 113, N-(1-(3-chloro-phenyl)-2-hydroxy-ethyl)-1-(2-((4-fluorophenyl)amino)-5-methyl-pyrimidin-4-yl)-1H-pyrrole-3-carboxamide] | 0.05 to 0.1 µM | ≤ 0.05 µM | – | –
Cc1cnc(NC2CCOCC2)nc1-n1cnc(C(=O)NCc2ccc(Cl)c(CO)c2)c1 [Example 330, N-(4-chloro-3-(hydroxymethyl)-benzyl)-1-(5-methyl-2-((tetrahydro-2H-pyran-4-yl)amino)-pyrimidin-4-yl)-1H-imidazole-4-carboxamide] | – | – | < 0.05 µM | ≤ 0.05 µM
NCC(NC(=O)c1cn(-c2ccnc(Nc3ccc(F)cc3)c2)cn1)c1ccccc1 (stereo not shown) [Compound 221, N-(2-amino-1-phenylethyl)-1-(2-((4-fluorophenyl)-amino)pyridin-4-yl)-1H-imidazole-4-carboxamide] | < 0.05 µM | ≤ 0.05 µM | – | –
Cc1cnc(N[C@H]2CC[C@H](O)CC2)nc1-n1cnc(C(=O)N[C@H](CO)c2cccc(Cl)c2)c1 [Compound 242, N-((S)-1-(3-chlorophenyl)-2-hydroxyethyl)-1-(2-(((1r,4S)-4-hydroxycyclohexyl)amino)-5-methyl-pyrimidin-4-yl)-1H-imidazole-4-carboxamide] | < 0.05 µM | ≤ 0.05 µM | – | –
Cc1cnc(Nc2ccc(F)cc2)cc1-n1ccc(C(=O)NC(CN)c2ccccc2)c1 (stereo not shown) [Compound 98, N-(2-amino-1-phenylethyl)-1-(2-((4-fluorophenyl)-amino)-5-methyl-pyridin-4-yl)-1H-pyrrole-3-carboxamide] | < 0.05 µM | ≤ 0.05 µM | – | –
Cc1cnc(NC2CCNC2)nc1-n1ccc(C(=O)N[C@H](CO)c2cccc(Cl)c2)c1 (stereo partly drawn) [Compound 174, N-((S)-1-(3-chlorophenyl)-2-hydroxyethyl)-1-(5-methyl-2-(pyrrolidin-3-ylamino)pyrimidin-4-yl)-1H-pyrrole-3-carboxamide] | < 0.05 µM | ≤ 0.05 µM | – | –
CC[C@@H](CO)Nc1cc(-n2ccc(C(=O)NC(CO)c3cccc(Cl)c3)c2)ccn1 (stereo partly drawn) [Compound 109, N-(1-(3-chloro-phenyl)-2-hydroxy-ethyl)-1-(2-(((S)-1-hydroxybutan-2-yl)amino)pyridin-4-yl)-1H-pyrrole-3-carboxamide] | < 0.05 µM | ≤ 0.05 µM | – | –
Cc1cnc(Nc2ccc(F)cc2Cl)nc1-n1ccc(C(=O)N[C@H](CO)c2cccc(Cl)c2)c1 [Compound 57, (S)-1-(2-((2-chloro-4-fluorophenyl)-amino)-5-methyl-pyrimidin-4-yl)-N-(1-(3-chlorophenyl)-2-hydroxyethyl)-1H-pyrrole-3-carboxamide] | < 0.05 µM | ≤ 0.05 µM | – | –
Cc1cnc(NC2CCOCC2)nc1-n1cnc(C(=O)NC(CN)c2cccs2)c1 (stereo not shown) [Example 267, N-(2-amino-1-(thiophen-2-yl)ethyl)-1-(5-methyl-2-((tetrahydro-2H-pyran-4-yl)amino)-pyrimidin-4-yl)-1H-imidazole-4-carboxamide] | < 0.05 µM | ≤ 0.05 µM | – | –
Cc1cnc(Nc2ccc(F)c(N3CCOCC3)c2)nc1-n1cnc(C(=O)NC(CO)c2cccc(Cl)c2)c1 (stereo not shown) [Compound 223, N-(1-(3-chlorophenyl)-2-hydroxyethyl)-1-(2-((4-fluoro-3-morpholinophenyl)amino)-5-methyl-pyrimidin-4-yl)-1H-imidazole-4-carboxamide] | < 0.05 µM | ≤ 0.05 µM | – | –
